What was measured:
[1] = biological target: GDP-bound NRAS wild-type protein (Homo sapiens, UniProt P01111); assay: Binding to NRAS by surface plasmon resonance (SPR), KD and KD ratio to KRAS; details: ratio of KD value for GDP-bound NRAS wild-type protein to KD value for KRAS (SPR)
Procedure, shortened: (§1)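 Affinity is measured by surface plasmon resonance at 30°C against captured, GDP-loaded RAS carrying a biotinylated Avi tag. Compounds are titrated by single-cycle kinetics, and KD comes from a 1:1 fit.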

HRAS wild-type protein = HRAS wild-type protein (Homo sapiens, UniProt P01112); assay: Binding to HRAS by surface plasmon resonance (SPR), KD and KD ratio to KRAS; details: ratio of KD value for HRAS wild-type protein to KD value for KRAS (SPR)
Sequence of HRAS wild-type protein (P01112 whole entry): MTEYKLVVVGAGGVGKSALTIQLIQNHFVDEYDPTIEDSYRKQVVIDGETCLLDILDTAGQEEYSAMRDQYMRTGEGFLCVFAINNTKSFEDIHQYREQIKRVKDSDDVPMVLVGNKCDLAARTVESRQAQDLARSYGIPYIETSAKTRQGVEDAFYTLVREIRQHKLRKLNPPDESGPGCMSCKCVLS
Procedure, shortened: as §1

[2] = system: human lung cancer strain NCI-H441; type: cell-based
Procedure, shortened: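 Readout: […] after the ATP-based reagent. Compound: serial dilutions in dimethyl sulfoxide.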

Sequence of GDP-bound NRAS wild-type protein (P01111 whole entry): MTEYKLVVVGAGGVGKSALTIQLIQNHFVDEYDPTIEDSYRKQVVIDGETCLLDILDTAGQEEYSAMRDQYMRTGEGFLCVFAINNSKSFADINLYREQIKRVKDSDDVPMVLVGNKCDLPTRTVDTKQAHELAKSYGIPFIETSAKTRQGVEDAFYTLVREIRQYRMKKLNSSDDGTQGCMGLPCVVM

SMILES	IC50 [2]	NRAS /KRAS [1]	HRAS /KRAS (HRAS wild-type protein)
CC[C@H](C)[C@@H]1NC(=O)[C@H](CC(C)C)N(C)C(=O)C[C@@H](C(=O)N(C)C)N(C)C(=O)[C@H](C2CCCC2)N(C)C(=O)C2(CCC2)NC(=O)[C@@H]2[C@@H](OCC(F)F)CCN2C(=O)[C@H](CCc2cc(F)c(C(F)(F)F)c(F)c2)NC(=O)CN(C)C(=O)[C@H](Cc2ccc(C(F)(F)F)cc2)N2CC/C=C\C[C@@H](C2=O)N(C)C(=O)CN(C)C1=O [PP1534]	24.7 nM	AA (a compound having 20 or more is denoted as AA)	A (a compound having 10 or more and less than 20 is denoted as A)
CC[C@H](C)[C@@H]1NC(=O)[C@H](CC2CC2)N(C)C(=O)C[C@@H](C(=O)N(C)CC)N(C)C(=O)[C@H](C2CCCC2)N(C)C(=O)C2(CCC2)NC(=O)[C@@H]2CC(F)(F)CN2C(=O)[C@H](CCc2cc(F)c(C(F)(F)F)c(F)c2)NC(=O)CN(C)C(=O)[C@H](Cc2ccc(C(F)(F)F)cc2)N2CC/C=C\C[C@@H](C2=O)N(C)C(=O)CN(C)C1=O [PP1538]	7.5 nM	A (a compound having 10 or more and less than 20 is denoted as A)	B (a compound having 3 or more and less than 10 is denoted as B)
CCO[C@@H]1C[C@H]2C(=O)NC3(CC(C)(C)C3)C(=O)N(C)[C@@H](C3CCCC3)C(=O)N(C)[C@H](C(=O)N(C)C)CC(=O)N(C)[C@@H](CC)C(=O)N[C@@H]([C@@H](C)CC)C(=O)N(C)CC(=O)N(C)[C@H]3C/C=C\CCN(C3=O)[C@@H](Cc3ccc(C(F)(F)F)cc3)C(=O)N(C)CC(=O)N[C@@H](CCc3ccc(C(F)(F)F)c(OC)c3)C(=O)N2C1 [PP1559]	1.8 nM	A (a compound having 10 or more and less than 20 is denoted as A)	A (a compound having 10 or more and less than 20 is denoted as A)
CCC[C@H]1C(=O)N[C@@H]([C@@H](C)CC)C(=O)N(C)CC(=O)N(C)[C@H]2C/C=C\CCN(C2=O)[C@@H](Cc2ccc(C(F)(F)F)cc2)C(=O)N(C)CC(=O)N[C@@H](CCc2ccc(C(F)(F)F)c(OC)c2)C(=O)N2C[C@H](OCC)C[C@H]2C(=O)NC2(CC(C)(C)C2)C(=O)N(C)[C@@H](C2CCCC2)C(=O)N(C)[C@H](C(=O)N(C)C)CC(=O)N1C [PP1560]	1.8 nM	A (a compound having 10 or more and less than 20 is denoted as A)	B (a compound having 3 or more and less than 10 is denoted as B)
CCO[C@@H]1C[C@H]2C(=O)NC3(CC(C)(C)C3)C(=O)N(C)[C@@H](C3CCCC3)C(=O)N(C)[C@H](C(=O)N(C)C)CC(=O)N(C)[C@@H](CC3CC3)C(=O)N[C@@H]([C@@H](C)CC)C(=O)N(C)CC(=O)N(C)[C@H]3C/C=C\CCN(C3=O)[C@@H](Cc3ccc(C(F)(F)F)cc3)C(=O)N(C)CC(=O)N[C@@H](CCc3ccc(C(F)(F)F)c(OC)c3)C(=O)N2C1 [PP1563]	2.6 nM	A (a compound having 10 or more and less than 20 is denoted as A)	A (a compound having 10 or more and less than 20 is denoted as A)
CC[C@H](C)[C@@H]1NC(=O)[C@H](CC2CC2)N(C)C(=O)C[C@@H](C(=O)N(C)CC)N(C)C(=O)[C@H](C2CCCC2)N(C)C(=O)C2(CC(C)(C)C2)NC(=O)[C@@H]2C[C@@H](F)CN2C(=O)[C@H](CCc2cc(F)c(C(F)(F)F)c(F)c2)NC(=O)CN(C)C(=O)[C@H](Cc2ccc(C(F)(F)F)cc2)N2CC/C=C\C[C@@H](C2=O)N(C)C(=O)CN(C)C1=O [PP1570]	2.6 nM	AA (a compound having 20 or more is denoted as AA)	A (a compound having 10 or more and less than 20 is denoted as A)
CC[C@H](C)[C@@H]1NC(=O)[C@H](CC2CC2)N(C)C(=O)C[C@@H](C(=O)N(CC)CC)N(C)C(=O)[C@H](C2CCCC2)N(C)C(=O)C2(CC(C)(C)C2)NC(=O)[C@@H]2C[C@@H](F)CN2C(=O)[C@H](CCc2cc(F)c(C(F)(F)F)c(F)c2)NC(=O)CN(C)C(=O)[C@H](Cc2ccc(C(F)(F)F)cc2)N2CC/C=C\C[C@@H](C2=O)N(C)C(=O)CN(C)C1=O [PP1571]	6.8 nM	A (a compound having 10 or more and less than 20 is denoted as A)	A (a compound having 10 or more and less than 20 is denoted as A)
CCCOC[C@H]1C(=O)N[C@@H]([C@@H](C)CC)C(=O)N(C)CC(=O)N(C)[C@H]2C/C=C\CCN(C2=O)[C@@H](Cc2ccc(C(F)(F)F)cc2)C(=O)N(C)CC(=O)N[C@@H](CCc2cc(F)c(C(F)(F)F)c(F)c2)C(=O)N2C[C@H](OCC)C[C@H]2C(=O)NC2(CC(C)(C)C2)C(=O)N(C)[C@@H](C2CCCC2)C(=O)N(C)[C@H](C(=O)N(C)CC)CC(=O)N1C [PP1572]	3.6 nM	A (a compound having 10 or more and less than 20 is denoted as A)	A (a compound having 10 or more and less than 20 is denoted as A)

More lines, main results first:

IC50 [2]	SMILES	NRAS /KRAS [1]	HRAS /KRAS (HRAS wild-type protein)
24.8 nM	CC[C@H](C)[C@@H]1NC(=O)[C@H](CC2CCCC2)N(C)C(=O)C[C@@H](C(=O)N(C)C)N(C)C(=O)[C@@H](C2CCCC2)N(C)C(=O)C2(CCC2)NC(=O)[C@@H]2[C@@H](OCC(F)F)CCN2C(=O)[C@@H](CCc2cc(F)c(C(F)(F)F)c(F)c2)NC(=O)CN(C)C(=O)[C@@H](Cc2ccc(C)cc2)N2CC/C=C\C[C@H](C2=O)N(C)C(=O)CN(C)C1=O [PP1536]	A (a compound having 10 or more and less than 20 is denoted as A)	B (a compound having 3 or more and less than 10 is denoted as B)
7.9 nM	CC[C@H](C)[C@@H]1NC(=O)[C@H](CC2CC2)N(C)C(=O)C[C@@H](C(=O)N(C)CC)N(C)C(=O)[C@H](C2CCCC2)N(C)C(=O)C2(CCC2)NC(=O)[C@@H]2C[C@H](C)CN2C(=O)[C@H](CCc2cc(F)c(C(F)(F)F)c(F)c2)NC(=O)CN(C)C(=O)[C@H](Cc2ccc(C(F)(F)F)cc2)N2CC/C=C\C[C@@H](C2=O)N(C)C(=O)CN(C)C1=O [PP1537]	AA (a compound having 20 or more is denoted as AA)	A (a compound having 10 or more and less than 20 is denoted as A)
15.9 nM	CCO[C@@H]1C[C@H]2C(=O)NC3(CCC3)C(=O)N(C)[C@@H](C3CCCC3)C(=O)N(C)[C@H](C(=O)N(C)CC)CC(=O)N(C)[C@@H](CC)C(=O)N[C@@H]([C@@H](C)CC)C(=O)N(C)CC(=O)N(C)[C@H]3C/C=C\CCN(C3=O)[C@@H](CC3CCCCC3)C(=O)N(C)CC(=O)N[C@@H](CCc3cc(F)c(C(F)(F)F)c(F)c3)C(=O)N2C1 [PP1552]	A (a compound having 10 or more and less than 20 is denoted as A)	A (a compound having 10 or more and less than 20 is denoted as A)
12.1 nM	CCO[C@@H]1C[C@H]2C(=O)NC3(CCC3)C(=O)N(C)[C@@H](C3CCCC3)C(=O)N(C)[C@H](C(=O)N(C)CC)CC(=O)N(C)[C@@H](CC)C(=O)N[C@@H]([C@@H](C)CC)C(=O)N(C)CC(=O)N(C)[C@H]3C/C=C\CCN(C3=O)[C@@H](CC3CCC(F)(F)CC3)C(=O)N(C)CC(=O)N[C@@H](CCc3cc(F)c(C(F)(F)F)c(F)c3)C(=O)N2C1 [PP1553]	A (a compound having 10 or more and less than 20 is denoted as A)	A (a compound having 10 or more and less than 20 is denoted as A)
2.2 nM	CCO[C@@H]1C[C@H]2C(=O)NC3(CC(C)(C)C3)C(=O)N(C)[C@@H](C3CCCC3)C(=O)N(C)[C@H](C(=O)N(C)C)CC(=O)N(C)[C@@H](CC3CC3)C(=O)N[C@@H]([C@@H](C)CC)C(=O)N(C)CC(=O)N(C)[C@H]3C/C=C\CCN(C3=O)[C@@H](Cc3ccc(C(F)(F)F)cc3)C(=O)N(C)CC(=O)N[C@@H](CCc3cc(F)c(C(F)(F)F)c(F)c3)C(=O)N2C1 [PP1568]	A (a compound having 10 or more and less than 20 is denoted as A)	A (a compound having 10 or more and less than 20 is denoted as A)
2.8 nM	CCCOC[C@H]1C(=O)N[C@@H]([C@@H](C)CC)C(=O)N(C)CC(=O)N(C)[C@H]2C/C=C\CCN(C2=O)[C@@H](Cc2ccc(C(F)(F)F)cc2)C(=O)N(C)CC(=O)N[C@@H](CCc2cc(F)c(C(F)(F)F)c(F)c2)C(=O)N2C[C@H](OCC)C[C@H]2C(=O)NC2(CCC2)C(=O)N(C)[C@@H](C2CCCC2)C(=O)N(C)[C@H](C(=O)N(C)CC)CC(=O)N1C [PP1569]	A (a compound having 10 or more and less than 20 is denoted as A)	B (a compound having 3 or more and less than 10 is denoted as B)
6.5 nM	CCO[C@@H]1C[C@H]2C(=O)NC3(CCCC3)C(=O)N(C)[C@@H](C3CCCC3)C(=O)N(C)[C@H](C(=O)N(C)CC)CC(=O)N(C)[C@@H](CC(C)C)C(=O)N[C@@H]([C@@H](C)CC)C(=O)N(C)CC(=O)N(C)[C@H]3C/C=C\CCN(C3=O)[C@@H](Cc3ccc(C(F)(F)F)cc3)C(=O)N(C)CC(=O)N[C@@H](CCc3cc(F)c(C(F)(F)F)c(F)c3)C(=O)N2C1 [PP1574]	A (a compound having 10 or more and less than 20 is denoted as A)	A (a compound having 10 or more and less than 20 is denoted as A)
